Laboratory results as given in article PMC11477298, “Small Molecules Inducing Autophagic Degradation of Expanded Polyglutamine Protein through Interaction with Both Mutant ATXN3 and LC3” (International Journal of Molecular Sciences, 2024).

What was measured:
[1] = system: ATXN3-Q75-GFP SH-SY5Y cells; assay: Confocal microscopy of LC3 puncta, ATXN3-Q75 aggregates and P62 colocalization; type: cell-based, human; conditions: compound 10 μM, range over trehalose and the four compounds; for Colocalization coefficient of ATXN3-Q75-GFP with LC3 puncta: untreated 0.014; for Colocalization coefficient of LC3 with P62: untreated 0.21; for LC3 puncta per cell: untreated induced 2.7
Experimental: ATXN3-Q75-GFP SY5Y cells were seeded onto 12-well plates (1 × 10^5/well) containing poly-L-lysine-coated coverslip on day 1; treated with retinoic acid, test compounds, and doxycycline on day 2; and fixed, permeabilized, and blocked on day 8, as described. The primary anti-LC3 antibody (1:1000; Cell Signaling #83506, Danvers, MA, USA) or anti-P62 antibody (1:1500; Cell Signaling #5114) was used to stain cells at 4 °C overnight. After washing with PBS containing 0.1% Tween 20 (PBST), cells were incubated for 2 h at room temperature with Cy5-conjugated (1:1000, Jackson ImmunoResearch 715-175-150) or Alexa Fluor 555-conjugated (1:500; Invitrogen #A-31572) secondary antibody, and washed three times with PBST. Nuclei were detected using DAPI (0.1 μg/mL; Sigma-Aldrich). The stained cells on coverslips were mounted onto microscope slides with Vectashield antifade mounting medium (Vector Laboratories, Newark, CA, USA) and examined using a Zeiss LSM880 confocal microscope (Carl Zeiss AG, Oberkochen, Baden-Württemberg, Germany). Cell images were acquired at excitation/emission wavelengths of 649/666 nm, 482/536 nm, 555/582 nm, and 385/461 nm for stained LC3 puncta, aggregates, P62, and nuclei, respectively. For colocalization, 300 cells from three independent experiments were analyzed and quantified for the proportion of pixels that LC3 (red) colocalized with P62 (yellow) using Mander’s overlap coefficient (MOC) in ZEN software version 2.1 (Carl Zeiss AG).

[2] = MTT compound cytotoxicity assay; type: cell-based, human; conditions: human, ATXN3-Q75-GFP SH-SY5Y cells, 0.1–100 μM compound, viability analyzed the next day, n = 3
Experimental: (§1) For the compound cytotoxicity assay, ATXN3-Q75-GFP SY5Y cells (2 × 10^4) were plated into 96-well dishes, grown for 20 h, and treated with 0.1–100 μM test compounds. After 1 day, 3-(4,5-dimethylthiazol-2-yl)-2,5-diphenyltetrazolium bromide (MTT, 5 mg/mL) (Sigma-Aldrich, St. Louis, MO, USA) was added to the cells and incubated for 3 h at 37 °C. Lysis buffer (10% Triton X-100, 0.1 N HCl, 18% isopropanol) was then added to dissolve the insoluble formazan crystals. The absorbance of the purple-colored solution was measured at optical density (OD) 570 nm by using a FLx800 fluorescence microplate spectrophotometer (Bio-Tek, Winooski, VT, USA). The half-maximal inhibitory concentration (IC50) was calculated through the construction of a dose–response curve.

[3] = system: ATXN3-Q75-GFP SH-SY5Y cells; assay: High-content neurite outgrowth assay; type: cell-based, human; conditions: compound 10 µM, range over the four named compounds; for Neurite branch: untreated 1.16; for Neurite process: untreated 2.41; for Neurite length: untreated 23.2 µm
Experimental: ATXN3-Q75-GFP SH-SY5Y cells (5 × 10^4/well) were plated onto 24-well plates, with retinoic acid addition (10 µM; Sigma-Aldrich) on day 1 to initiate neuronal differentiation. On day 2, the cells were pretreated with disaccharide trehalose (10 mM, as a positive control) or the studied compounds (10 μM) for 8 h, followed by the addition of doxycycline (5 μg/mL, Sigma-Aldrich) to induce ATXN3-Q75-GFP expression. The cells were kept in the medium containing retinoic acid, the test compound, and doxycycline for 6 days, with the culture medium changed on day 5. ATXN3-Q75 aggregation and neurite outgrowth assays were performed on day 8 using a high-content imaging system (ImageXpress Micro Confocal; Molecular Devices).
For the aggregation assay, cells were stained with Hoechst 33342 (0.1 µg/mL; Sigma-Aldrich) at 37 °C for 30 min. Images of the cells were automatically obtained at excitation/emission wavelengths of 482/536 nm (FITC [fluorescein isothiocyanate] filter) for enhanced GFP and 377/447 nm (DAPI [4′,6-diamidino-2-phenylindole] filter) for nucleus counting. ATXN3-Q75 aggregation was determined by Transfluor technology based on GFP fluorescence intensity. For the neurite outgrowth assay, cells were fixed with 4% paraformaldehyde for 30 min, permeabilized with 0.1% Triton X-100 for 10 min, and blocked by non-specific binding with 3% bovine serum albumin for 20 min. The primary TUBB3 (neuronal class III β-tubulin) antibody (1:1000; BioLegend #802001, San Diego, CA, USA) was used to stain cells at 4 °C overnight, followed by Alexa Fluor 555-donkey anti-rabbit IgG secondary antibody (1:1000; Invitrogen #A-31572) staining for 2 h at room temperature. Nuclei were detected using DAPI (0.1 μg/mL; Sigma-Aldrich). Cell images were obtained at excitation/emission wavelengths of 531/593 nm (TRITC [tetramethylrhodamine] filter) for stained neurites and 377/447 nm (DAPI filter) for nuclei. To quantify neurite outgrowth, microscopic images were segmented with multi-colored masks to assign each outgrowth to a cell body for quantification. Neurite total length (μm) and numbers of process (primary neurites originating from neuronal cell body) and branch (secondary neurites extended from primary neurites) were analyzed (Neurite Outgrowth Application Module; Molecular Devices). In general, […] in each biological replicate were analyzed.

[4] = system: ATXN3-Q75-GFP SH-SY5Y cells; assay: Western blot of LC3-II:LC3-I ratio; type: cell-based, human; conditions: compound 10 μM; uninduced = 100%, untreated induced 76%; range over trehalose and the four compounds
Experimental: For the immunoblotting analysis, ATXN3-Q75-GFP SH-SY5Y cells were seeded in 6-well plates (3 × 10^5/well) and treated with retinoic acid, test compounds, and doxycycline, as described. On day 8, cells were collected and lysed in buffer (50 mM Tris-HCl pH 8.0, 150 mM NaCl, 2 mM EDTA pH 8.0, 0.1% SDS, 0.5% sodium deoxycholate, 1% NP-40) containing the protease inhibitor cocktail (Sigma-Aldrich). After sonication, the lysates were centrifuged (12,000× g for 10 min at 4 °C) and protein concentrations determined (Bradford protein assay; Bio-Rad, Hercules, CA, USA). Aliquots of protein (20 µg) were separated by electrophoresis using 12% SDS-polyacrylamide gel followed by transfer to a polyvinylidene fluoride membrane. After being blocked with 5% skim milk at 4 °C overnight, the membrane was stained with LC3 (1:1000; Medical & Biological Laboratories Co. #PM036, Tokyo, Japan) or GAPDH (glyceraldehyde 3-phosphate dehydrogenase) (1:1000, MDBio #30000002, Taipei, Taiwan) primary antibody at 4 °C overnight. The immune complexes were detected using HRP-conjugated goat anti-rabbit IgG antibody and chemiluminescent substrate, as described.

[5] = system: human ATXN3-Q75-GFP SH-SY5Y cells; assay: MTT compound cytotoxicity assay; type: cell-based; conditions: 0.1–100 μM compound, viability analyzed the next day, n = 3
Experimental: as §1

| Structure (SMILES) | Colocalization coefficient of ATXN3-Q75-GFP with LC3 puncta [1] | Colocalization coefficient of LC3 with P62 [1] | LC3 puncta per cell [1] | IC50 at 1 day [2] [µM] | Neurite branch [3] | Neurite process [3] | Neurite length [3] | Relative LC3-II:LC3-I ratio [4] | IC50 [5] [µM] |
| --- | --- | --- | --- | --- | --- | --- | --- | --- | --- |
| O=C(c1ccccc1)c1cc2c(O)cccc2oc1=O [LM-031] | 0.025–0.030 | 0.26–0.29 | 4.6–6.7 | > 100 | 1.34–1.37 | 2.55–2.57 | 26.1–26.9 µm | 102–124% |  |
| CC(=O)/C(=C\c1ccccc1[N+](=O)[O-])Cc1c[nH]c2ccccc12 [NC009-1] | 0.025–0.030 | 0.26–0.29 | 4.6–6.7 | 111 | 1.34–1.37 | 2.55–2.57 | 26.1–26.9 µm | 102–124% | > 100 |
| CC(=O)/C(=C\c1ccccc1[N+](=O)[O-])Cc1c(C)[nH]c2ccccc12 [NC009-2] | 0.025–0.030 | 0.26–0.29 | 4.6–6.7 | 124 | 1.34–1.37 | 2.55–2.57 | 26.1–26.9 µm | 102–124% | > 100 |
